Patent publication US10420850B2, “Method of imaging with a chelating agent” (ENDOCYTE, INC., priority 2015, dated 2019)

Tested on: FR positive human xenograft models
Assay: Mouse imaging: ^99mTc biodistribution and microSPECT/CT
Assay type: in vivo
Conditions: intravenous, tumor-bearing mice
Procedure: Etarfolatide kits were used for the preparation of ^99mTc-chelated radioactive drug substance. Radiochemical purity of ^99mTc-etarfolatide was determined by HPLC attached to a radiodetector. ^99mTc-etarfolatide was investigated in vivo using mice bearing FR positive human xenograft models. Test articles were administered intravenously in mice via the lateral tail vein. ^99mTc biodistribution was determined by removing selected tissues and measuring their radioactivity content in an automatic gamma-counter. High resolution three dimensional images of the radiolabel were obtained on a dual microSPECT/CT system.

In the case of `[NH-][C@@H](CNC(=O)CC[C@@H](NC(=O)c1ccc(NCc2cnc3nc(N)[nH]c(=O)c3n2)cc1)C(=O)O)C(=O)[N-][C@@H](CC(=O)O)C(=O)[N-][C@@H](C[S-])C(=O)O.[O]=[Tc+4]` [^99mTc-etarfolatide], the “Time after which levels in normal FR-negative tissues had cleared to near baseline” value is reported as 4 to 8 h, the “Time tumor retention remained near maximum” value is reported as “approximately 18 hours” and the “Time of peak tissue levels post injection” value (FR-expressing tumor and kidney) is reported as 1 h.
